Measurements from US9073876B2, “Flap modulators” (JANSSEN PHARMACEUTICA NV, priority 2013, dated 2015).
Structures can show the parent of a compound that is named as a salt.

Target: human FLAP (Homo sapiens (Human), UniProt P20292)
Test: FLAP binding assay (HTRF)
Settings: human FLAP-containing membranes, HTRF format; average of two assay plates, duplicates; read-out: FLAP Binding wild type HTRF Ki
Procedure: The ability of the compounds of the present invention to treat a FLAP-mediated disease and/or disorder, or associated symptoms or complications thereof, was determined using the following procedures. Binding assay data represent the average value obtained from two different assay plates, with samples run in duplicate on each plate. Human whole blood assay data represent a single replicate on an assay plate using whole blood from at least one healthy donor.
Data are expressed as a HTRF ratio.

Chain of human FLAP (P20292 whole entry): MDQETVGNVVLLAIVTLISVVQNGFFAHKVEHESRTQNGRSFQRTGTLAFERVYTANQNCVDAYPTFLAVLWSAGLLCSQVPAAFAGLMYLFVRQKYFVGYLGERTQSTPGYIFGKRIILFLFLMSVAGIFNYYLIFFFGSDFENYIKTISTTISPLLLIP

Compound	Ki [nM]
5-(4-Cyclobutyl-2-fluoro-3- methoxyphenyl)pyridin-2-amine hydrochloride salt [Example 178]	354
Nc1cnc(-c2ccc(C3CCC3)c(OCC(O)CN3CCC(O)C3)c2F)cn1 (mixture of isomers) [Example 308, diastereomeric mixture 1-{3-[3-(5-Aminopyrazin-2-yl)-6-cyclobutyl-2-fluorophenoxy]-2-hydroxypropyl}pyrrolidin-3-ol]	> 10000
Nc1cnc(-c2ccc(C3CCC3)c(OCC(O)Cn3ccccc3=O)c2F)cn1 (racemic) [Example 51, racemic 1-(3-(3-(5-Aminopyrazin-2-yl)-6-cyclobutyl-2-fluorophenoxy)-2-hydroxypropyl)pyridin-2(1H)-one]	324
Nc1cnc(-c2ccc(C3CCC3)c(OCC(O)CO)c2F)cn1 (racemic) [Example 254, 3-(3-(5-Aminopyrazin-2-yl)-6-cyclobutyl-2-fluorophenoxy)propane-1,2-diol]	992
Nc1cnc(-c2ccc(C3CCC3)c(OCC3CCCNC3)c2F)cn1 (racemic) [Example 299, racemic 5-[4-Cyclobutyl-2-fluoro-3-(piperidin-3-ylmethoxy)phenyl]pyrazin-2-amine]	> 10000
Nc1cnc(-c2ccc(C3CCC3)c(OCC3CCNC3)c2F)cn1 (racemic) [Example 300, racemic 5-[4-Cyclobutyl-2-fluoro-3-(pyrrolidin-3-ylmethoxy)phenyl]pyrazin-2-amine]	> 10000
Nc1cnc(-c2ccc(C3CCC3)c(OCC3CCCN3)c2F)cn1 (racemic) [Example 302, racemic 5-[4-Cyclobutyl-2-fluoro-3-(pyrrolidin-2-ylmethoxy)phenyl]pyrazin-2-amine]	> 10000
Nc1cnc(-c2ccc(C3CCC3)c(OCC(O)CN3CCCCC3)c2F)cn1 (racemic) [Example 303, racemic 5 1-[3-(5-Aminopyrazin-2-yl)-6-cyclobutyl-2-fluorophenoxy]-3-piperidin-1-ylpropan-2-ol]	> 10000
CNCC(O)COc1c(C2CCC2)ccc(-c2cnc(N)cn2)c1F (racemic) [Example 304, racemic 1-[3-(5-Aminopyrazin-2-yl)-6-cyclobutyl-2-fluorophenoxy]-3-(methylamino)propan-2-ol]	> 10000
CC(C)NCC(O)COc1c(C2CCC2)ccc(-c2cnc(N)cn2)c1F (racemic) [Example 305, racemic 1-[3-(5-Aminopyrazin-2-yl)-6-cyclobutyl-2-fluorophenoxy]-3-[(1-methylethyl)amino]propan-2-ol]	> 10000
Nc1cnc(-c2ccc(C3CCC3)c(OCC(O)CN3CCCC3)c2F)cn1 (racemic) [Example 306, racemic 1-[3-(5-Aminopyrazin-2-yl)-6-cyclobutyl-2-fluorophenoxy]-3-pyrrolidin-1-ylpropan-2-ol]	> 10000
CN(C)CC(O)COc1c(C2CCC2)ccc(-c2cnc(N)cn2)c1F (racemic) [Example 307, racemic 1-[3-(5-Aminopyrazin-2-yl)-6-cyclobutyl-2-fluorophenoxy]-3-(dimethylamino)propan-2-ol]	> 10000
Nc1cnc(-c2ccc(C3CCC3)c(OCC(O)CN3CCNCC3)c2F)cn1 (racemic) [Example 309, racemic 1-[3-(5-Aminopyrazin-2-yl)-6-cyclobutyl-2-fluorophenoxy]-3-piperazin-1-ylpropan-2-ol]	> 10000
Nc1cnc(-c2ccc(C3CCC3)c(OCC(O)Cn3cccnc3=O)c2F)cn1 (racemic) [Example 310, racemic 1-{3-[3-(5-Aminopyrazin-2-yl)-6-cyclobutyl-2-fluorophenoxy]-2-hydroxypropyl}pyrimidin-2(1H)-one]	> 10000
Nc1cnc(-c2ccc(C3CCC3)c(OCC(O)CN3CCNC3=O)c2F)cn1 (racemic) [Example 312, racemic 1-{3-[3-(5-Aminopyrazin-2-yl)-6-cyclobutyl-2-fluorophenoxy]-2-hydroxypropyl}imidazolidin-2-one]	974
Nc1cnc(-c2ccc(C3CCC3)c(OCc3cccc(OC(F)(F)F)c3)c2F)cn1 [Example 9, 5-(4-Cyclobutyl-2-fluoro-3-{[3-(trifluoromethoxy)benzyl]oxy}phenyl)-pyrazin-2-amine]	808
Nc1cnc(-c2ccc(C3CCC3)c(OCc3ccc(OC(F)(F)F)cc3)c2F)cn1 [Example 10, 5-(4-Cyclobutyl-2-fluoro-3-{[4-(trifluoromethoxy)benzyl]oxy}phenyl)-pyrazin-2-amine]	866
Nc1cnc(-c2ccc(C3CCC3)c(OCc3ccc(F)cc3)c2F)cn1 [Example 28, 5-{4-Cyclobutyl-2-fluoro-3-[(4-fluorobenzyl)oxy]phenyl}pyrazin-2-amine]	304
Nc1cnc(-c2ccc(C3CCC3)c(OCc3ccccc3F)c2F)cn1 [Example 30, 5-{4-Cyclobutyl-2-fluoro-3-[(2-fluorobenzyl)oxy]phenyl}pyrazin-2-amine]	354
Nc1cnc(-c2ccc(C3CCC3)c(OCc3cccc(F)c3F)c2F)cn1 [Example 32, 5-{4-Cyclobutyl-3-[(2,3-difluorobenzyl)oxy]-2-fluorophenyl}pyrazin-2-amine]	354

Compound	Ki [nM]
Nc1cnc(-c2ccc(C3CCC3)c(OCc3ccc(Cl)cc3Cl)c2F)cn1 [Example 40, 5-{4-Cyclobutyl-3-[(2,4-dichlorobenzyl)oxy]-2-fluorophenyl}pyrazin-2-amine]	612
Nc1cnc(-c2ccc(C3CCC3)c(OCc3cccc(C(F)(F)F)c3Cl)c2F)cn1 [Example 42, 5-(3-{[2-Chloro-3-(trifluoromethyl)benzyl]oxy}-4-cyclobutyl-2-fluorophenyl)pyrazin-2-amine]	2000
Nc1cnc(-c2ccc(C3CCC3)c(OCc3cc(Cl)ccc3C(F)(F)F)c2F)cn1 [Example 43, 5-(3-{[5-Chloro-2-(trifluoromethyl)benzyl]oxy}-4-cyclobutyl-2-fluorophenyl)pyrazin-2-amine]	430
Nc1cnc(-c2ccc(C3CCC3)c(OCc3ccc(F)cc3C(F)(F)F)c2F)cn1 [Example 44, 5-(4-Cyclobutyl-2-fluoro-3-{[4-fluoro-2-(trifluoro-methyl)benzyl]oxy}phenyl)pyrazin-2-amine]	1500
Nc1cnc(-c2ccc(C3CCC3)c(OCC(=O)O)c2F)cn1 [Example 50, [3-(5-Aminopyrazin-2-yl)-6-cyclobutyl-2-fluorophenoxy]acetic acid]	1500
Nc1cnc(-c2ccc(C3CCC3)c(OCC3CCCCC3)c2F)cn1 [Example 71, 5-[4-Cyclobutyl-3-(cyclohexylmethoxy)-2-fluorophenyl]pyrazin-2-amine]	620
Cc1noc(COc2c(C3CCC3)ccc(-c3cnc(N)cn3)c2F)n1 [Example 75, 5-{4-Cyclobutyl-2-fluoro-3-[(3-methyl-1,2,4-oxadiazol-5-yl)methoxy]phenyl}pyrazin-2-amine]	370
Nc1cnc(-c2ccc(C3CCC3)c(OCc3ccccc3S(F)(F)(F)(F)F)c2F)cn1 [Example 81, 5-(4-Cyclobutyl-2-fluoro-3-{[2-(pentafluoro-lambda~6~- sulfanyl)benzyl]oxy}phenyl)pyrazin-2-amine]	394
Nc1cnc(-c2ccc(C3CCC3)c(OCC3CCC3)c2F)cn1 [Example 82, 5-[4-Cyclobutyl-3-(cyclobutylmethoxy)-2-fluorophenyl]pyrazin-2-amine]	304
Nc1cnc(-c2ccc(C3CCC3)c(Oc3cnc(C(F)(F)F)cn3)c2F)cn1 [Example 105, 5-(4-Cyclobutyl-2-fluoro-3-{[5-(trifluoromethyl)pyrazin-2-yl]oxy}phenyl)pyrazin-2-amine]	250
CS(=O)(=O)c1ccccc1Oc1c(C2CCC2)ccc(-c2cnc(N)cn2)c1F [Example 117, 5-{4-Cyclobutyl-2-fluoro-3-[2-(methylsulfonyl)phenoxy]phenyl}pyrazin-2-amine]	2500
Nc1cnc(-c2ccc(C3CCC3)c(Oc3ccc(C(F)(F)F)c(C(F)(F)F)c3)c2F)cn1 [Example 120, 5-{3-[3,4-Bis(trifluoromethyl)phenoxy]-4-cyclobutyl-2-fluorophenyl}pyrazin-2-amine]	304
Nc1cnc(-c2ccc(C3CCC3)c(Oc3ncccc3C(F)(F)F)c2F)cn1 [Example 121, 5-(4-Cyclobutyl-2-fluoro-3-{[3-(trifluoromethyl)pyridin-2-yl]oxy}phenyl)pyrazin-2-amine]	250
Nc1cnc(-c2ccc(C3CCC3)c(Oc3cc(C(F)(F)F)ncn3)c2F)cn1 [Example 125, 5-(4-Cyclobutyl-2-fluoro-3-{[6-(trifluoromethyl)pyrimidin-4-yl]oxy}phenyl)pyrazin-2-amine]	250
CS(=O)(=O)c1ccc(Oc2c(C3CCC3)ccc(-c3cnc(N)cn3)c2F)c(C(F)(F)F)c1 [Example 127, 5-(4-cyclobutyl-2-fluoro-3-(4-(methylsulfonyl)-2-(trifluoro-methyl)phenoxy)phenyl)pyrazin-2-amine]	2200
Nc1cnc(-c2ccc(C3CCC3)c(Oc3ccc(C(F)(F)F)nc3)c2F)cn1 [Example 128, 5-(4-Cyclobutyl-2-fluoro-3-{[6-(trifluoromethyl)pyridin-3-yl]oxy}phenyl)pyrazin-2-amine]	297
Cn1nc(Oc2c(C3CCC3)ccc(-c3cnc(N)cn3)c2F)c(C#N)c1C(F)(F)F [Example 148, 3-[3-(5-Aminopyrazin-2-yl)-6-cyclobutyl-2-fluorophenoxy]-1-methyl-5-(trifluoromethyl)-1H-pyrazole-4-carbonitrile]	101
CN(C)CCNc1nccc(Oc2c(C3CCC3)ccc(-c3cnc(N)cn3)c2F)n1 [Example 156, N′-{4-[3-(5-Aminopyrazin-2-yl)-6-cyclobutyl-2-fluorophenoxy]pyrimidin-2-yl}-N,N-dimethylethane-1,2-diamine hydrochloride]	2240
N#Cc1nc(N)cnc1-c1ccc(C2CCC2)c(O)c1F [Example 173, 6-amino-3-(4-cyclobutyl-2-fluoro-3-hydroxyphenyl)pyrazine-2-carbonitrile]	682
